The target of experiment [1] is Bromodomain-containing protein 7 (Homo sapiens, UniProt Q9NPI1). The experiment in a line: Binding affinity to BRD7 in human HUT78 cells incubated for 45 mins by mass spectrometry based bromosphere chemoproteomic assay. Type of experiment: cell-based.
The target of experiment [2] is Tyrosine-protein kinase BAZ1B (Homo sapiens, UniProt Q9UIG0). The experiment in a line: Binding affinity to BAZ1B in human HUT78 cells incubated for 45 mins by mass spectrometry based bromosphere chemoproteomic assay. Type of experiment: cell-based.
In experiment [3] the target is SWI/SNF-related matrix-associated actin-dependent regulator of chromatin subfamily A member 4 (Homo sapiens, UniProt P51532). The experiment in a line: Binding affinity to SMARCA4 in human HUT78 cells incubated for 45 mins by mass spectrometry based bromosphere chemoproteomic assay. The format is cell-based.
For experiment [4], the target named is T1, Bromodomain-containing protein 3 (Homo sapiens, UniProt Q15059). The experiment in a line: Binding affinity to BRD3 in human HUT78 cells incubated for 45 mins by mass spectrometry based bromosphere chemoproteomic assay. The format is cell-based.
Another experiment concerns the target T2, Peregrin (Homo sapiens, UniProt P55201).
T2 sequence (P55201 whole entry): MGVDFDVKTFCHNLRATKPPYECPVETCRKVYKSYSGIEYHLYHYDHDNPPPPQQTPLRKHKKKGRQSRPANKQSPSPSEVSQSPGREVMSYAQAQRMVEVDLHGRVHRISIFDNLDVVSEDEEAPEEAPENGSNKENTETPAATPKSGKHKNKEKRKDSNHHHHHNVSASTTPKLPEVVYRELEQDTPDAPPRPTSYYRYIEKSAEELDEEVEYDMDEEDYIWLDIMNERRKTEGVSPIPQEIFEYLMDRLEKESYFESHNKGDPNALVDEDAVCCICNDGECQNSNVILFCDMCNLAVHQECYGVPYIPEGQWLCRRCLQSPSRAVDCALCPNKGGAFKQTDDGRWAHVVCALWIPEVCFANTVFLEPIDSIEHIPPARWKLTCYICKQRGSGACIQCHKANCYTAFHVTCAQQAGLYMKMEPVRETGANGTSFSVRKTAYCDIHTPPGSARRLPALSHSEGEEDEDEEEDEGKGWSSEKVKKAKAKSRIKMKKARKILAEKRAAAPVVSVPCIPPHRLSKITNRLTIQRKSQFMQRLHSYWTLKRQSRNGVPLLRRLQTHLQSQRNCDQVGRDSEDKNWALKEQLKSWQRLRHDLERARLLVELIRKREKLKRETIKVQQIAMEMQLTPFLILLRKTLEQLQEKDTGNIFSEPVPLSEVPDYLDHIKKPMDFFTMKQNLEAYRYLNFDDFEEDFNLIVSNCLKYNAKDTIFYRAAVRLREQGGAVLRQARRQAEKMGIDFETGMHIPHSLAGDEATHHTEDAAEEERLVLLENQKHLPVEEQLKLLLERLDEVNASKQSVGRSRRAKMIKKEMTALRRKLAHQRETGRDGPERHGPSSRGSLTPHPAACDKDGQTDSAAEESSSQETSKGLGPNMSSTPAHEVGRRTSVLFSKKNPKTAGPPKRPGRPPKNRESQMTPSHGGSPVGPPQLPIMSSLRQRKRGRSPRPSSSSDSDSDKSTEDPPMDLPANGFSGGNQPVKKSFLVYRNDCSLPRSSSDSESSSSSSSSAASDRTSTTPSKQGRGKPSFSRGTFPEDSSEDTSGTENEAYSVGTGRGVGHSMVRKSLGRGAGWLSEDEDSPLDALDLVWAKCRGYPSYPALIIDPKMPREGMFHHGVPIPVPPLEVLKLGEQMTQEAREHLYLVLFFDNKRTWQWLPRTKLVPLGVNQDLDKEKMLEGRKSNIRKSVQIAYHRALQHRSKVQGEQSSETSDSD
Briefly: Binding affinity to BRPF1 in human HUT78 cells incubated for 45 mins by mass spectrometry based bromosphere chemoproteomic assay. Type of experiment: cell-based.

For experiment [5], the target named is T3, Bromodomain-containing protein 4 (Homo sapiens, UniProt O60885). Briefly: Binding affinity to BRD4 BD1 (unknown origin) by BROMOscan panel based assay.
The target of experiment [6] is T3, Bromodomain-containing protein 4. Briefly: Binding affinity to BRD4 in human HUT78 cells incubated for 45 mins by mass spectrometry based bromosphere chemoproteomic assay. The format is cell-based.
Experiment [7] addresses Transcription initiation factor TFIID subunit 1 (Homo sapiens, UniProt P21675). The experiment in a line: Binding affinity to TAF1 in human HUT78 cells incubated for 45 mins by mass spectrometry based bromosphere chemoproteomic assay. The format is cell-based.
In experiment [8] the target is Chromatin remodeling regulator CECR2 (Homo sapiens, UniProt Q9BXF3). Briefly: Binding affinity to CECR2 (unknown origin) by BROMOscan panel based assay.
The target in experiment [9] is T1, Bromodomain-containing protein 3. Briefly: Binding affinity to BRD3 containing BD2 bromodomains (unknown origin) by TR-FRET assay. In general terms: TR-FRET usually uses a lanthanide donor and a delayed reading to cut background.
Experiment [10] concerns the target Bromodomain adjacent to zinc finger domain protein 2A (Homo sapiens, UniProt Q9UIF9). Briefly: Binding affinity to BAZ2A in human HUT78 cells incubated for 45 mins by mass spectrometry based bromosphere chemoproteomic assay. The format is cell-based.
In experiment [11] the target is T1, Bromodomain-containing protein 3. Briefly: Binding affinity to BRD3 containing BD1 bromodomains (unknown origin) by TR-FRET assay.
Experiment [12] has as its target ATPase family AAA domain-containing protein 2B (Homo sapiens, UniProt Q9ULI0). The experiment in a line: Binding affinity to ATAD2B in human HUT78 cells incubated for 45 mins by mass spectrometry based bromosphere chemoproteomic assay. Type of experiment: cell-based.
The target in experiment [13] is T3, Bromodomain-containing protein 4. Briefly: Binding affinity to BRD4 containing BD1 bromodomains (unknown origin) by TR-FRET assay.
In experiment [14] the target is Histone acetyltransferase KAT2A (Homo sapiens, UniProt Q92830). The experiment in a line: Binding affinity to KAT2A in human HUT78 cells incubated for 45 mins by mass spectrometry based bromosphere chemoproteomic assay. Type of experiment: cell-based.
Experiment [15] deals with Bromodomain-containing protein 4 (Homo sapiens, UniProt O60885, Y390A).
In experiment [16] the target is Bromodomain-containing protein 2 (Homo sapiens, UniProt P25440). Briefly: Binding affinity to BRD2 containing BD2 bromodomains (unknown origin) by TR-FRET assay.

pIC50, pKd, pKi: −log10 of the molar value. Where only a bound is given, the exact number is not on record here.

T1 sequence (Q15059 whole entry): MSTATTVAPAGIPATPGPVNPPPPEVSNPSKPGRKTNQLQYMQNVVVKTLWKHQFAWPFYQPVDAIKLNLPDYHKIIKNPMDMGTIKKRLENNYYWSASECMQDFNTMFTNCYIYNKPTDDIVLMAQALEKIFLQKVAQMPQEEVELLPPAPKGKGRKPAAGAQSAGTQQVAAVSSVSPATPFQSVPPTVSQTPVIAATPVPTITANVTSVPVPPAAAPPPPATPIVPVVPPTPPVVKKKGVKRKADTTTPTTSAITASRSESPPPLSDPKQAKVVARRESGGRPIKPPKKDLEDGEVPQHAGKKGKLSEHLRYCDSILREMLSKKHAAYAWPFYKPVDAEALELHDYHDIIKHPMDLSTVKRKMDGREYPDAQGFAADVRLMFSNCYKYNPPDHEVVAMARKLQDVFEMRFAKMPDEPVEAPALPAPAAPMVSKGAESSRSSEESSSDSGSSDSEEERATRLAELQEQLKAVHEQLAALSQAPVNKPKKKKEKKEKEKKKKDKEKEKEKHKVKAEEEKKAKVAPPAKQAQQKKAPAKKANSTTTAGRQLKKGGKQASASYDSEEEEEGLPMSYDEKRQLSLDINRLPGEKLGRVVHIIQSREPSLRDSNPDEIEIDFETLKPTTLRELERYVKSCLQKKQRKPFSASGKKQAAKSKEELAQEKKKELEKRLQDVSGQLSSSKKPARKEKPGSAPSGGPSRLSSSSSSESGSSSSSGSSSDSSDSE
Chain of Histone acetyltransferase KAT2A (Q92830 whole entry): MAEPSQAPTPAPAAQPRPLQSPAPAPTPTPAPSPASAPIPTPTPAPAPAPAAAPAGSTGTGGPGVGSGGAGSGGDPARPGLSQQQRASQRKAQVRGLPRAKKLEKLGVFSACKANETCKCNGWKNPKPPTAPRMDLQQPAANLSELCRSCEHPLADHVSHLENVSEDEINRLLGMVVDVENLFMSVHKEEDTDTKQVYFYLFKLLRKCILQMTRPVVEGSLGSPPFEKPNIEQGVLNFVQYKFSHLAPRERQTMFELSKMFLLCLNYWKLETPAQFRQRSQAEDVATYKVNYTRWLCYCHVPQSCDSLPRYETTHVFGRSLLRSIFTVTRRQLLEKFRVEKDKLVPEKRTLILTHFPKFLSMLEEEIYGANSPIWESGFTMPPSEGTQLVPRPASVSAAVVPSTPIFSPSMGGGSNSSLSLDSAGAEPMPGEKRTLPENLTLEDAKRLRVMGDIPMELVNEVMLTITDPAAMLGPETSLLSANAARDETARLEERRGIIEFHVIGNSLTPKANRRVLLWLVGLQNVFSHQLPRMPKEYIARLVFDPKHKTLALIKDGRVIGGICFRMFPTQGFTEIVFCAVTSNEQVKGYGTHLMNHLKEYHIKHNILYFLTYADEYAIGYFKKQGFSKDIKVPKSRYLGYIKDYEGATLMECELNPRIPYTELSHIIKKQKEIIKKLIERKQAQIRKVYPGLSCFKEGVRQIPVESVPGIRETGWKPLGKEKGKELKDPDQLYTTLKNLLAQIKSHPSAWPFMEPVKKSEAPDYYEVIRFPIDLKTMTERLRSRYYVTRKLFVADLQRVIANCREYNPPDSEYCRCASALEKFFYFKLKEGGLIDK
Chain of Transcription initiation factor TFIID subunit 1 (P21675 whole entry): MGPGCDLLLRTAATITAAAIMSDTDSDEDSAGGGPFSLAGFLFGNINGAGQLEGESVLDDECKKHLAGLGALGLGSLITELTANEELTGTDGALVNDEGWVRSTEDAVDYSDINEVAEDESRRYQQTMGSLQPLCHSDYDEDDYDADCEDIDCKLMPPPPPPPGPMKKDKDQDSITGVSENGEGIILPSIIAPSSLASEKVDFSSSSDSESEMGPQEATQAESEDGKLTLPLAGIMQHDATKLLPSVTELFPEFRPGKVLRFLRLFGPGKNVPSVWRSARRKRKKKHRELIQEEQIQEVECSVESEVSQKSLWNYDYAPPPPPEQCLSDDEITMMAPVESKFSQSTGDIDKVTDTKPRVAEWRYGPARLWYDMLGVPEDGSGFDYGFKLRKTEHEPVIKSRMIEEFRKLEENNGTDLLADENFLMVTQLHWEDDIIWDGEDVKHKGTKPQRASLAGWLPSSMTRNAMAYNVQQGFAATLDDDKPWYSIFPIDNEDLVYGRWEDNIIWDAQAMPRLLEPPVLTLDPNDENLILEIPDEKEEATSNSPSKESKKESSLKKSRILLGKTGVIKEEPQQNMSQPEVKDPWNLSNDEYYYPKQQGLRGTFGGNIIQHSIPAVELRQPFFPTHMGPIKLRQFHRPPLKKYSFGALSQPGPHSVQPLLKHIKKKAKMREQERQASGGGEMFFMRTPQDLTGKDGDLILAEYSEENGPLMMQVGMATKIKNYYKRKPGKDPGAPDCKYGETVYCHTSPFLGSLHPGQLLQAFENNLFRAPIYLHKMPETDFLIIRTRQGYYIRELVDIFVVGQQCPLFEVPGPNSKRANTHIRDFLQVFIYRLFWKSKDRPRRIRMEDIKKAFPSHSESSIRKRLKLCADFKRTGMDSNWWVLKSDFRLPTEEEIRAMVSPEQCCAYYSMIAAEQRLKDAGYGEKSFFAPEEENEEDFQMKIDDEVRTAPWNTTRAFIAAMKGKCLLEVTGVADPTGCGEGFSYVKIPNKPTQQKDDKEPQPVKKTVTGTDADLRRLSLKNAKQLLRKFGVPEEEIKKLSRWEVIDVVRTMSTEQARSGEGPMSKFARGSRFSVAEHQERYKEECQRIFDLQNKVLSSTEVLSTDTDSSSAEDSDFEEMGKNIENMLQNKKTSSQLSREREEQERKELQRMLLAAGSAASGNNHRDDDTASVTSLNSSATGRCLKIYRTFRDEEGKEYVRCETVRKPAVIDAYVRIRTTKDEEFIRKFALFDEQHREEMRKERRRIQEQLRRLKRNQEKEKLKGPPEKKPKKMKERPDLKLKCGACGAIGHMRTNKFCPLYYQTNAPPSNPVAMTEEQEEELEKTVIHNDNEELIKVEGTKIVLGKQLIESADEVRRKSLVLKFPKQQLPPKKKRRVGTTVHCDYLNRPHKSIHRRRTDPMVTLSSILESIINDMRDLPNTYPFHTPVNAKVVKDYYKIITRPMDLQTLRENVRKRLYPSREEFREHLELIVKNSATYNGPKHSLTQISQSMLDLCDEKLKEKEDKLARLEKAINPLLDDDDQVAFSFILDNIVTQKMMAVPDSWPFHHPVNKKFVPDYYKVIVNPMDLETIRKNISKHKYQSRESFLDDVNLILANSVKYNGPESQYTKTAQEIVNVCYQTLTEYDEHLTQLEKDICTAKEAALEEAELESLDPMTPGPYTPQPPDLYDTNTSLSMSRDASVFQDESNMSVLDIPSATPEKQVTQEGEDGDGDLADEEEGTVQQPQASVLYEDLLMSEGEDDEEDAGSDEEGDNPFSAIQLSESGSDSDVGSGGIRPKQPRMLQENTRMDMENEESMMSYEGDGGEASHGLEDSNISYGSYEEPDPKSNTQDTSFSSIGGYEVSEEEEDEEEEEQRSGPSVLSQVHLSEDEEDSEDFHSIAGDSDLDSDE
Chain of Chromatin remodeling regulator CECR2 (Q9BXF3 whole entry): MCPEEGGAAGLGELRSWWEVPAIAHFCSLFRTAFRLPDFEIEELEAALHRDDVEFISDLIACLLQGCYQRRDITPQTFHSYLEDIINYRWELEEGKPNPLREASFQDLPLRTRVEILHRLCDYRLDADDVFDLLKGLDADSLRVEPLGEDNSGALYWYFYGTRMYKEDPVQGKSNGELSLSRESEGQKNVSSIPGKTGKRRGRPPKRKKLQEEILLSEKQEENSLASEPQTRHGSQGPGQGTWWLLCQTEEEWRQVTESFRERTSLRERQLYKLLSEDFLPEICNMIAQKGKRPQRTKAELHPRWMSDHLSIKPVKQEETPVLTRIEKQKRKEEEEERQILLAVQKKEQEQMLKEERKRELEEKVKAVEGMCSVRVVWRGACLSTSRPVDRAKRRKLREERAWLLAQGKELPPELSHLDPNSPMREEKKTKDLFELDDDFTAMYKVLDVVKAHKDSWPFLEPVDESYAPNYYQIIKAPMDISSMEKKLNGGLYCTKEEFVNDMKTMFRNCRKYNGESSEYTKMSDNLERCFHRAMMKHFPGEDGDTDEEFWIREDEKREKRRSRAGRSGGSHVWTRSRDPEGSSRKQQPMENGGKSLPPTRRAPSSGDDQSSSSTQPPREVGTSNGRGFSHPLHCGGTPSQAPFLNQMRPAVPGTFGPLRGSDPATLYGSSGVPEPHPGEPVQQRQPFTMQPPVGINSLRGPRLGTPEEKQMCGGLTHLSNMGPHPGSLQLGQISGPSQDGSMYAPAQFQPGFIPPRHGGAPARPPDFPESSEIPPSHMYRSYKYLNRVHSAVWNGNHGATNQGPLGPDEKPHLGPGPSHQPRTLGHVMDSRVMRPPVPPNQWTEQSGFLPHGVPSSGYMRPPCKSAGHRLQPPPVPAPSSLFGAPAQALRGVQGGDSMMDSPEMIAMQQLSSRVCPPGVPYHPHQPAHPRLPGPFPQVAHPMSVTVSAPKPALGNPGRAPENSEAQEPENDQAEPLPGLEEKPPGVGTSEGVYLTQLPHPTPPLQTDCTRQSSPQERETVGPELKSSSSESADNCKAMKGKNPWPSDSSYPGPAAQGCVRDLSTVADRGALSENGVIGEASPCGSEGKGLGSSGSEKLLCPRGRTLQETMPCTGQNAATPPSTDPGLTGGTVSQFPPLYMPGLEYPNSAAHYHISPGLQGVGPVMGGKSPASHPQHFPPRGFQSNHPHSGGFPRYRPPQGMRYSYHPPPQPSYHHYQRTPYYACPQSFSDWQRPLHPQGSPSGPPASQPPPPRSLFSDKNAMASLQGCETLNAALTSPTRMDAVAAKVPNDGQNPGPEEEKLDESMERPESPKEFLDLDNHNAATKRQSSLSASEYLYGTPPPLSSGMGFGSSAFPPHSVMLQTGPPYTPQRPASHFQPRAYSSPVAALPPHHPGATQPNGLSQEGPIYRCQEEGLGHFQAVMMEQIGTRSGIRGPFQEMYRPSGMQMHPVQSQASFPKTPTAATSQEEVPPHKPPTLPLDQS

Take `Cc1cncc(-c2cnc(N[C@@H]3CCN(C)C[C@H]3OCC3CCS(=O)(=O)CC3)c3[nH]c(=O)c(C)cc23)c1`: the negative-log Kd (pKd) in experiment [1] is 4.50; in experiment [2], < 4.00; in experiment [3], 4.70; in experiment [4], < 4.00; on Peregrin, < 4.00; in experiment [6] it was 4.70. The negative-log Kd (pKd) was 5.90 in experiment [7], < 4.00 in experiment [10], 7.00 in experiment [12] and < 4.00 in experiment [14]. Further, the negative-log Ki (pKi) in [5] was 5.10; in experiment [8], 6.10. Also, the negative-log IC50 (pIC50) is < 4.30 in experiment [9]; < 4.30 in [11]; 4.10 in experiment [13]; 4.10 in experiment [15]; < 4.30 in [16].

As a reminder, the pKd is −log10 of the Kd, conventionally taken in molar units. Read a low pKd as a large Kd. Usually pKi stands for the negative decadic logarithm of the Ki, by convention in mol/L. Higher therefore signals a small Ki. The term pIC50 denotes −log10 of the IC50, conventionally taken in molar units. A lower pIC50 goes with a high IC50.

Source of the values: ChEMBL document CHEMBL3588744, “Structure-Based Optimization of Naphthyridones into Potent ATAD2 Bromodomain Inhibitors” (J Med Chem, 2015).
